# Measurements taken from patent US20260317324A1, “BIFUNCTIONAL COMPOUNDS FOR DEGRADING BRAF VIA UBIQUITIN PROTEOSOME PATHWAY” (Nurix Therapeutics, Inc., priority 2023, published 2026).
# Molecular target: T1, BRAF V600E (Homo sapiens, UniProt P15056, V600E)
# T1 construct: endogenous C-terminal HiBiT fusion tag on BRAF V600E allele; endogenous in cells; host or cells: A375 clone 1F10 (CRISPR-Cas9 knock-in of the HiBiT tag; parental A375 from ATCC)
# Experiment: BRAF HiBiT degradation assay, C-terminal HiBiT-tagged BRAF V600E A375 cells (clone 1F10), Nano-Glo HiBiT Lytic assay
# Format: cell-based
# Details: A375 (BRAF V600E); for DC50: DC50 at 50%: fitted conc. at Y=50; for Dmax: A-375, percentage protein degraded at maximal compound effect relative to DMSO
# Excerpt: An A375 cell line expressing a homozygous V600E mutation was purchased from ATCC (Manassas, VA, USA). An A375 clone 1F10 cell line with an endogenous C-terminal HiBiT fusion tag on BRAF V600E allele was generated internally using CRISPR-Cas9 technology and cultured in DMEM, high glucose supplemented with 10% FBS and 1× GlutaMAX. A HCT-116 BRAF−/− cell line overexpressing the C-terminal HiBiT-tagged G466V, G469A, and D594G mutants were generated by lentiviral transduction, externally at Biosettia Inc (San Diego, CA, USA). The stably transfected cells were cultured in RPMI media supplemented with 10% FBS, 1× GlutaMAX, and 0.25 μg/ml puromycin. DMEM medium, RPMI 1640 medium, GlutaMAX, fetal bovine serum (FBS), and puromycin were purchased from Gibco (Grand Island, NY, USA). HCT-116 BRAF−/− cells were purchased from Horizon Discovery (Waterbeach, UK).
# The C-terminal HiBiT tagged BRAF A375 cells (monoclonal cell line, cell clone 1F10) were seeded at a density of 10,000 cells/well in 30 μL media (DMEM, high glucose supplemented with 10% FBS and 1× GlutaMAX) in white opaque 384-well plates (Corning #3570) from column 1 to column 23. The wildtype A375 cells were seeded in column 24 at the same cell density in 30 μL media. Cells were incubated at 37° C. with 5% CO2 for 24 h.
# Intermediate compound dilution series (5-point, ranging from 5 mM to 0.5 μM, 10-fold dilutions in DMSO) were prepared in a source plate (Beckman Coulter cat. no. 001-16128). Final compound dilution series (11-point, ranging from 1 μM to 0.01 nM, half-log dilutions in DMSO) were stamped into the assay plate (Corning #3570, column 1-11 and 12-22) using the Echo Acoustic Liquid Handler (Beckman Coulter). Each compound was plated in duplicate, and the total volume of compound DMSO solution was 60 nL/well (0.2% final DMSO concentration). DMSO was included in wells A23-L23 and A24-L24. The DMSO-treated HiBiT-tagged samples served as Negative Control (NC) and the DMSO-treated wildtype samples served as Background Control (BC) for the HiBiT assay.
# HiBiT signal was measured by a Nano-Glo HiBiT Lytic assay (Promega cat. no. N3050). HiBiT lytic detection reagent (Nano-Glo HiBiT Lytic Buffer with 1:50 Nano-Glo HiBiT Lytic Substrate and 1:100 LgBiT Protein, 40 μL) was added using Bravo. The mixture was incubated at room temperature, in the dark, and with gentle shaking for 10 min. Luminesce units (LU) were read on an EnVision plate reader 2105 (Perkin Elmer).
# Percent protein remaining and viability remaining per sample were calculated as follows: […]
# % Protein remaining values were plotted as a function of compound concentration. XC50 (DC50) values were determined by fitting curves using the following equation:
# For the HiBiT degradation assay, the key parameters reported include: • The dose of compound that produces 50% degradation (DC50 at 50%): • DC50 at 50%: the Fitted X value (Conc.) at Y=50 (response) • Observed Dmax (Obs. Dmax) is the percentage protein degraded at maximal compound effect relative to DMSO-treated control: […]
# T1 sequence (P15056 whole entry V600E, the tested form may be a part): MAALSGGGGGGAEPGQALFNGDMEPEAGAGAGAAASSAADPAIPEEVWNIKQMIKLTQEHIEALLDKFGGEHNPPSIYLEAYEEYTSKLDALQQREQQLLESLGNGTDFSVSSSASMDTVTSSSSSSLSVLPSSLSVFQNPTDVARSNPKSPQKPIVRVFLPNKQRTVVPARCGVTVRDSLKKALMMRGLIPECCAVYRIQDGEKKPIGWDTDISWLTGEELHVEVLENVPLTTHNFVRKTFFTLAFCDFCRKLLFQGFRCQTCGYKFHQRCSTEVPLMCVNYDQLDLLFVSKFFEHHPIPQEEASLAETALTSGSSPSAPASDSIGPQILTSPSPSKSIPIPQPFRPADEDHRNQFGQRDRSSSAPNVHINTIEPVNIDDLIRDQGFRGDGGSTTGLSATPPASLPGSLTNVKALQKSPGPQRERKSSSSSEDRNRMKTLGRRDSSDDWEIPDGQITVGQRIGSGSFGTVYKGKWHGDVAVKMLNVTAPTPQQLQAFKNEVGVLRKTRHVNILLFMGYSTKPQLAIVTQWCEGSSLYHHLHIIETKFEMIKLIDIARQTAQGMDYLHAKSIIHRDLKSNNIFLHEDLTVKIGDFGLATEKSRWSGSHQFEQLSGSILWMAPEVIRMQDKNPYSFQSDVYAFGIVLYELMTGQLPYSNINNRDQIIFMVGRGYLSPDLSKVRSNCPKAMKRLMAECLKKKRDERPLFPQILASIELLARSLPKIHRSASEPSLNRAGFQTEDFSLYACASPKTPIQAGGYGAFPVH
SMILES,DC50,Dmax
"CCCS(=O)(=O)Nc1cccc(-c2nc(C(C)(C)C)sc2-c2ccnc(Nc3ccc(C4CCN(C(=O)C5CCN(c6ccc7c(c6)C(=O)N(C6CCC(=O)NC6=O)C7=O)CC5)CC4)cc3)n2)c1F (racemic) [Compound 155, Rac-N-(3-{2-tert-butyl-5-[2-({4-[1-(1-{2-[(3R)-2,6-dioxopiperidin-3-yl]-1,3-dioxo-2,3-dihydro-1H-isoindol-5-yl}piperidine-4-carbonyl)piperidin-4-yl]phenyl}amino)pyrimidin-4-yl]-1,3-thiazol-4-yl}-2-fluorophenyl)propane-1-sulfonamide]",50 to 500 nM,30 to 70%
"CCCS(=O)(=O)Nc1cccc(-c2nc(C3CCN(C(=O)C4CCN(CC5CCN(c6ccc(C7CCC(=O)NC7=O)cc6)CC5)CC4)CC3)sc2-c2ccnc(N)n2)c1F (racemic) [Compound 228, Rac-N-{3-[5-(2-aminopyrimidin-4-yl)-2-(1-{1-[(1-{4-[(3R)-2,6-dioxopiperidin-3-yl]phenyl}piperidin-4-yl)methyl]piperidine-4-carbonyl}piperidin-4-yl)-1,3-thiazol-4-yl]-2-fluorophenyl}propane-1-sulfonamide]",< 10 nM,> 70%
"CCCS(=O)(=O)Nc1cccc(-c2nc(C(C)(C)C)sc2-c2ccnc(NC3CC4(C3)CN(CC3CCN(C(=O)C5CCN(c6ccc(C7CCC(=O)NC7=O)cc6)CC5)CC3)C4)n2)c1F (racemic) [Compound 140, Rac-N-[3-(2-tert-butyl-5-{2-[(2-{[1-(1-{4-[(3R)-2,6-dioxopiperidin-3-yl]phenyl}piperidine-4-carbonyl)piperidin-4-yl]methyl}-2-azaspiro[3.3]heptan-6-yl)amino]pyrimidin-4-yl}-1,3-thiazol-4-yl)-2-fluorophenyl]propane-1-sulfonamide]",10 to 50 nM,> 70%
"CCCS(=O)(=O)Nc1cccc(-c2nc(C3CCN(C4CN(C(=O)CC5(O)CCN(c6ccc(NC7CCC(=O)NC7=O)cc6F)CC5)C4)CC3)sc2-c2ccnc(N)n2)c1F (racemic) [Compound 214, Rac-N-{3-[5-(2-aminopyrimidin-4-yl)-2-[1-(1-{2-[1-(4-{[(3R)-2,6-dioxopiperidin-3-yl]amino}-2-fluorophenyl)-4-hydroxypiperidin-4-yl]acetyl}azetidin-3-yl)piperidin-4-yl]-1,3-thiazol-4-yl]-2-fluorophenyl}propane-1-sulfonamide]",10 to 50 nM,30 to 70%
"CCCS(=O)(=O)Nc1cccc(-c2nc(C(C)(C)C)sc2-c2ccnc(Nc3cnn(CC4CCN(C(=O)CN5CCN(c6cc(C7CCC(=O)NC7=O)ccn6)CC5)CC4)c3)n2)c1F (racemic) [Compound 113, Rac-N-{3-[2-tert-butyl-5-(2-{[1-({1-[2-(4-{4-[(3R)-2,6-dioxopiperidin-3-yl]pyridin-2-yl}piperazin-1-yl)acetyl]piperidin-4-yl}methyl)-1H-pyrazol-4-yl]amino}pyrimidin-4-yl)-1,3-thiazol-4-yl]-2-fluorophenyl}propane-1-sulfonamide]",10 to 50 nM,> 70%
"CCCS(=O)(=O)Nc1cccc(-c2nc(C3(C)CCN(C(=O)CN4CCN(c5ccc6c(c5)C(=O)N(C5CCC(=O)NC5=O)C6=O)CC4)CC3)sc2-c2ccnc(N)n2)c1F (racemic) [Compound 232, Rac-N-{3-[5-(2-aminopyrimidin-4-yl)-2-{1-[2-(4-{2-[(3R)-2,6-dioxopiperidin-3-yl]-1,3-dioxo-2,3-dihydro-1H-isoindol-5-yl}piperazin-1-yl)acetyl]-4-methylpiperidin-4-yl}-1,3-thiazol-4-yl]-2-fluorophenyl}propane-1-sulfonamide]",50 to 500 nM,30 to 70%
"CCCS(=O)(=O)Nc1cccc(-c2nc(C(C)(C)C)sc2-c2ccnc(NC[C@H]3CCN(CC4CCN(c5ccc(C(=O)N[C@H]6CCC(=O)NC6=O)nc5)CC4)C3)n2)c1F [Compound 143, 5-(4-{[(3R)-3-{[(4-{2-tert-butyl-4-[2-fluoro-3-(propane-1-sulfonamido)phenyl]-1,3-thiazol-5-yl}pyrimidin-2-yl)amino]methyl}pyrrolidin-1-yl]methyl}piperidin-1-yl)-N-[(3S)-2,6-dioxopiperidin-3-yl]pyridine-2-carboxamide]",50 to 500 nM,30 to 70%
"CCCS(=O)(=O)Nc1cccc(-c2nc(C3CCN(C(=O)C4CN(C5CCN(c6ccc7c(c6)C(=O)N(C6CCC(=O)NC6=O)C7=O)CC5)C4)CC3)sc2-c2ccnc(N)n2)c1F (racemic) [Compound 242, Rac-N-{3-[5-(2-aminopyrimidin-4-yl)-2-{1-[1-(1-{2-[(3R)-2,6-dioxopiperidin-3-yl]-1,3-dioxo-2,3-dihydro-1H-isoindol-5-yl}piperidin-4-yl)azetidine-3-carbonyl]piperidin-4-yl}-1,3-thiazol-4-yl]-2-fluorophenyl}propane-1-sulfonamide]",< 10 nM,> 70%
"CCCS(=O)(=O)Nc1cccc(-c2nc(C3CCN(CC4CCN(C(=O)[C@H]5CC[C@H](Oc6cccc(C7CCC(=O)NC7=O)c6)CC5)CC4)CC3)sc2-c2ccnc(N)n2)c1F (mixture of isomers) [Compound 223, N-{3-[5-(2-aminopyrimidin-4-yl)-2-[1-({1-[(1r,4r)-4-{3-[(3RS)-2,6-dioxopiperidin-3-yl]phenoxy}cyclohexanecarbonyl]piperidin-4-yl}methyl)piperidin-4-yl]-1,3-thiazol-4-yl]-2-fluorophenyl}propane-1-sulfonamide]",50 to 500 nM,30 to 70%
"CCCS(=O)(=O)Nc1cccc(-c2nc(C(C)(C)C)sc2-c2ccnc(Nc3cccc(C4CCN(CC5(C)CCN(c6ccc(C7CCC(=O)NC7=O)cn6)CC5)CC4)c3)n2)c1F (racemic) [Compound 73, Rac-N-[3-(2-tert-butyl-5-{2-[(3-{1-[(1-{5-[(3R)-2,6-dioxopiperidin-3-yl]pyridin-2-yl}-4-methylpiperidin-4-yl)methyl]piperidin-4-yl}phenyl)amino]pyrimidin-4-yl}-1,3-thiazol-4-yl)-2-fluorophenyl]propane-1-sulfonamide]",50 to 500 nM,30 to 70%
"CCCS(=O)(=O)Nc1cccc(-c2nc(C3CCC4(CC3)CCN(C(=O)CN3CCC5(CC3)CN(c3ccc6c(c3)C(=O)N(C3CCC(=O)NC3=O)C6=O)C5)CC4)sc2-c2ccnc(N)n2)c1F (racemic) [Compound 237, Rac-N-{3-[5-(2-aminopyrimidin-4-yl)-2-{3-[2-(2-{2-[(3R)-2,6-dioxopiperidin-3-yl]-1,3-dioxo-2,3-dihydro-1H-isoindol-5-yl}-2,7-diazaspiro[3.5]nonan-7-yl)acetyl]-3-azaspiro[5.5]undecan-9-yl}-1,3-thiazol-4-yl]-2-fluorophenyl}propane-1-sulfonamide]",< 10 nM,> 70%
"CCCS(=O)(=O)Nc1cccc(-c2nc(C3CCN(CC4CCN(C(=O)C5CCN(c6ccc(C7CCC(=O)NC7=O)cn6)CC5)CC4)CC3)sc2-c2ccnc(N)n2)c1F (racemic) [Compound 213, Rac-N-{3-[5-(2-aminopyrimidin-4-yl)-2-(1-{[1-(1-{5-[(3R)-2,6-dioxopiperidin-3-yl]pyridin-2-yl}piperidine-4-carbonyl)piperidin-4-yl]methyl}piperidin-4-yl)-1,3-thiazol-4-yl]-2-fluorophenyl}propane-1-sulfonamide]",< 10 nM,> 70%
"CCCS(=O)(=O)Nc1cccc(-c2nc(C(C)(C)C)sc2-c2ccnc(NC3CC4(C3)CN(CC3CCN(CC5CCN(c6ccc(C7CCC(=O)NC7=O)cc6)CC5)CC3)C4)n2)c1F (racemic) [Compound 142, Rac-N-{3-[2-tert-butyl-5-(2-{[2-({1-[(1-{4-[(3R)-2,6-dioxopiperidin-3-yl]phenyl}piperidin-4-yl)methyl]piperidin-4-yl}methyl)-2-azaspiro[3.3]heptan-6-yl]amino}pyrimidin-4-yl)-1,3-thiazol-4-yl]-2-fluorophenyl}propane-1-sulfonamide]",50 to 500 nM,30 to 70%
